Experimental data from patent US20160122320A1, “USEFUL COMBINATIONS OF MONOBACTAM ANTIBIOTICS WITH BETA-LACTAMASE INHIBITORS” (Basilea Pharmaceutica AG, priority 2005, published 2016).

Key:
Test in all cases: MIC, NCCLS broth microdilution
Assay type in all cases: cell-based
[1] = test system: Enterobacter aerogenes Zayakosky; details: Enterobacter aerogenes Zayakosky 5
Experimental: (§2) Antimicrobial activity of the compounds and of their combinations was determined against a selection of organisms according to the standard procedures described by the National Committee for Clinical Laboratory Standards (National Committee for Clinical Laboratory. Standards (2000). Methods for Dilution Antimicrobial Susceptibility Tests for Bacteria That Grow Aerobically-Fifth Edition: Approved Standard M7-A5. NCCLS, Wayne, Pa., USA).
(§3) In all cases the final concentration of DMSO incubated with the bacteria is less than or equal to 1%. […] Plates were incubated overnight at an appropriate temperature (30° C. or 37° C.) and optical densities assessed by eye. The MIC value is defined as the lowest compound concentration completely inhibiting visible growth of the test organism. When combinations between compounds of formula I with compounds of formula II and are evaluated the compounds of formula I are tested in dilution series as described above while the compounds of formula II and III-XIII were present in all wells at a constant concentration of 4 μg/mL each.

Acinetobacter sp. J2 = details: Acinetobacter baumannii J2
Experimental: as §2, §3

[2] = test system: Pseudomonas aeruginosa MK1184
[3] = test system: Acinetobacter baumannii J51
In short: (§1)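 Broth microdilution following NCCLS M7-A5, with final DMSO ≤1%. Plates were incubated overnight at 30° C. or 37° C. and growth was read by eye; MIC is the lowest concentration giving complete inhibition of visible growth. In combination tests the formula I compound was serially diluted while partner compounds were held at 4 μg/mL each.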

[4] = test system: Pseudomonas aeruginosa 1973E
In short: as §1

Enterobacter cloacae P99 = test system: Enterobacter cloacae P99
[5] = test system: Klebsiella pneumoniae CF104
Serratia marcescens S6 = test system: Serratia marcescens S6
[6] = test system: Stenotrophomonas malthophilia 1AC736; details: Stenotrophomonas maltophilia 1AC736
[7] = with clavulanate (clavulanic acid)

CC1(C)[C@H](NC(=O)/C(=N\OCc2cc(=O)c(O)cn2O)c2csc(N)n2)C(=O)N1OS(=O)(=O)O [Compound 26, (3S)-3-{(2Z)-2-(2-amino(1,3-thiazol-4-yl))-3-[(1,5-dihydroxy-4-oxo(2-hydropyridyl))methoxy]-3-azaprop-2-enoylamino}-4,4-dimethyl-2-oxoazetidinyl hydroxysulfonate]
MIC of antibiotic ([1]; antibiotic alone, no inhibitor): 16 µg/mL
MIC of antibiotic at fixed inhibitor concentration of 4 mg/L ([1]; with 102 and clavulanate): 4 µg/mL
MIC of antibiotic at fixed inhibitor concentration of 4 mg/L ([1]; with 102 only): 8 µg/mL
MIC of antibiotic at fixed inhibitor concentration of 4 mg/L ([1]; with 324 and clavulanate): 4 µg/mL
MIC of antibiotic at fixed inhibitor concentration of 4 mg/L ([1]; with 324 only): 4 µg/mL
MIC of antibiotic at fixed inhibitor concentration of 4 mg/L ([1]; with 501): 16 µg/mL
MIC of antibiotic at fixed inhibitor concentration of 4 mg/L ([1]; with BRL427158): 0.5 µg/mL
MIC of antibiotic at fixed inhibitor concentration of 4 mg/L ([1]; with clavulanic acid): 8 µg/mL
MIC of antibiotic at fixed inhibitor concentration of 4 mg/L ([1]; with sulbactam): 16 µg/mL
MIC of antibiotic at fixed inhibitor concentration of 4 mg/L ([1]; with tazobactam): 16 µg/mL
MIC of antibiotic (Acinetobacter sp. J2; antibiotic alone, no inhibitor): 4 µg/mL
MIC of antibiotic at fixed inhibitor concentration of 4 mg/L (Acinetobacter sp. J2; with 102 and clavulanate): 4 µg/mL
MIC of antibiotic at fixed inhibitor concentration of 4 mg/L (Acinetobacter sp. J2; with 102 and sulbactam): 2 µg/mL
MIC of antibiotic at fixed inhibitor concentration of 4 mg/L (Acinetobacter sp. J2; with 102 only): 4 µg/mL
MIC of antibiotic at fixed inhibitor concentration of 4 mg/L (Acinetobacter sp. J2; with 324 and clavulanate): 4 µg/mL
MIC of antibiotic at fixed inhibitor concentration of 4 mg/L (Acinetobacter sp. J2; with 324 and sulbactam): 2 µg/mL
MIC of antibiotic at fixed inhibitor concentration of 4 mg/L (Acinetobacter sp. J2; with 324 only): 4 µg/mL
MIC of antibiotic at fixed inhibitor concentration of 4 mg/L (Acinetobacter sp. J2; with 501): 0.5 µg/mL
MIC of antibiotic at fixed inhibitor concentration of 4 mg/L (Acinetobacter sp. J2; with BRL427158): 0.5 µg/mL
MIC of antibiotic at fixed inhibitor concentration of 4 mg/L (Acinetobacter sp. J2; [7]): >32 µg/mL
MIC of antibiotic at fixed inhibitor concentration of 4 mg/L (Acinetobacter sp. J2; with sulbactam): 2 µg/mL
MIC of antibiotic at fixed inhibitor concentration of 4 mg/L (Acinetobacter sp. J2; with tazobactam): 4 µg/mL
MIC of antibiotic ([2]; antibiotic alone, no inhibitor): 2 µg/mL
MIC of antibiotic at fixed inhibitor concentration of 4 mg/L ([2]; with 102 and clavulanate): 2 µg/mL
MIC of antibiotic at fixed inhibitor concentration of 4 mg/L ([2]; with 102 and sulbactam): 2 µg/mL
MIC of antibiotic at fixed inhibitor concentration of 4 mg/L ([2]; with 102 only): 2 µg/mL
MIC of antibiotic at fixed inhibitor concentration of 4 mg/L ([2]; with 324 and clavulanate): 2 µg/mL
MIC of antibiotic at fixed inhibitor concentration of 4 mg/L ([2]; with 324 and sulbactam): 2 µg/mL
MIC of antibiotic at fixed inhibitor concentration of 4 mg/L ([2]; with 324 only): 4 µg/mL
MIC of antibiotic at fixed inhibitor concentration of 4 mg/L ([2]; with 501): 2 µg/mL
MIC of antibiotic at fixed inhibitor concentration of 4 mg/L ([2]; with BRL427158): 2 µg/mL
MIC of antibiotic at fixed inhibitor concentration of 4 mg/L [2, 7]: 4 µg/mL
MIC of antibiotic at fixed inhibitor concentration of 4 mg/L ([2]; with sulbactam): 4 µg/mL
MIC of antibiotic at fixed inhibitor concentration of 4 mg/L ([2]; with tazobactam): 4 µg/mL
MIC of antibiotic ([3]; antibiotic alone, no inhibitor): 4 µg/mL
MIC of antibiotic at fixed inhibitor concentration of 4 mg/L ([3]; with 102 and clavulanate): 4 µg/mL
MIC of antibiotic at fixed inhibitor concentration of 4 mg/L ([3]; with 102 only): 2 µg/mL
MIC of antibiotic at fixed inhibitor concentration of 4 mg/L ([3]; with 324 and clavulanate): 2 µg/mL
MIC of antibiotic at fixed inhibitor concentration of 4 mg/L ([3]; with 324 only): 2 µg/mL
MIC of antibiotic at fixed inhibitor concentration of 4 mg/L ([3]; with 501): 1 µg/mL
MIC of antibiotic at fixed inhibitor concentration of 4 mg/L ([3]; with BRL427158): 32 µg/mL
MIC of antibiotic at fixed inhibitor concentration of 4 mg/L ([3]; with clavulanic acid): 1 µg/mL
MIC of antibiotic at fixed inhibitor concentration of 4 mg/L ([3]; with sulbactam): 2 µg/mL
MIC of antibiotic at fixed inhibitor concentration of 4 mg/L ([3]; with tazobactam): 4 µg/mL
MIC of antibiotic ([4]; antibiotic alone, no inhibitor): 16 µg/mL
MIC of antibiotic at fixed inhibitor concentration of 4 mg/L ([4]; with 102 and clavulanate): 2 µg/mL
MIC of antibiotic at fixed inhibitor concentration of 4 mg/L ([4]; with 102 and sulbactam): 4 µg/mL
MIC of antibiotic at fixed inhibitor concentration of 4 mg/L ([4]; with 102 only): 2 µg/mL
MIC of antibiotic at fixed inhibitor concentration of 4 mg/L ([4]; with 324 and clavulanate): 2 µg/mL
MIC of antibiotic at fixed inhibitor concentration of 4 mg/L ([4]; with 324 and sulbactam): 2 µg/mL
MIC of antibiotic at fixed inhibitor concentration of 4 mg/L ([4]; with 324 only): 4 µg/mL
MIC of antibiotic at fixed inhibitor concentration of 4 mg/L ([4]; with 501): 2 µg/mL
MIC of antibiotic at fixed inhibitor concentration of 4 mg/L ([4]; with BRL427158): 2 µg/mL
MIC of antibiotic at fixed inhibitor concentration of 4 mg/L [4, 7]: 2 µg/mL
MIC of antibiotic at fixed inhibitor concentration of 4 mg/L ([4]; with sulbactam): 2 µg/mL
MIC of antibiotic at fixed inhibitor concentration of 4 mg/L ([4]; with tazobactam): 2 µg/mL
MIC of antibiotic (Enterobacter cloacae P99; antibiotic alone, no inhibitor): 16 µg/mL
MIC of antibiotic at fixed inhibitor concentration of 4 mg/L (Enterobacter cloacae P99; with 102 and clavulanate): 2 µg/mL
MIC of antibiotic at fixed inhibitor concentration of 4 mg/L (Enterobacter cloacae P99; with 102 and sulbactam): 2 µg/mL
MIC of antibiotic at fixed inhibitor concentration of 4 mg/L (Enterobacter cloacae P99; with 102 only): 1 µg/mL
MIC of antibiotic at fixed inhibitor concentration of 4 mg/L (Enterobacter cloacae P99; with 324 and clavulanate): 1 µg/mL
MIC of antibiotic at fixed inhibitor concentration of 4 mg/L (Enterobacter cloacae P99; with 324 and sulbactam): 2 µg/mL
MIC of antibiotic at fixed inhibitor concentration of 4 mg/L (Enterobacter cloacae P99; with 324 only): 2 µg/mL
MIC of antibiotic at fixed inhibitor concentration of 4 mg/L (Enterobacter cloacae P99; with 501): 2 µg/mL
MIC of antibiotic at fixed inhibitor concentration of 4 mg/L (Enterobacter cloacae P99; with BRL427158): 2 µg/mL
MIC of antibiotic at fixed inhibitor concentration of 4 mg/L (Enterobacter cloacae P99; [7]): 8 µg/mL
MIC of antibiotic at fixed inhibitor concentration of 4 mg/L (Enterobacter cloacae P99; with sulbactam): 8 µg/mL
MIC of antibiotic at fixed inhibitor concentration of 4 mg/L (Enterobacter cloacae P99; with tazobactam): 16 µg/mL
MIC of antibiotic ([5]; antibiotic alone, no inhibitor): 32 µg/mL
MIC of antibiotic at fixed inhibitor concentration of 4 mg/L ([5]; with 102 and clavulanate): 0.25 µg/mL
MIC of antibiotic at fixed inhibitor concentration of 4 mg/L ([5]; with 102 and sulbactam): 1 µg/mL
MIC of antibiotic at fixed inhibitor concentration of 4 mg/L ([5]; with 102 only): 16 µg/mL
MIC of antibiotic at fixed inhibitor concentration of 4 mg/L ([5]; with 324 and clavulanate): 0.25 µg/mL
MIC of antibiotic at fixed inhibitor concentration of 4 mg/L ([5]; with 324 and sulbactam): 1 µg/mL
MIC of antibiotic at fixed inhibitor concentration of 4 mg/L ([5]; with 324 only): 16 µg/mL
MIC of antibiotic at fixed inhibitor concentration of 4 mg/L ([5]; with 501): 1 µg/mL
MIC of antibiotic at fixed inhibitor concentration of 4 mg/L ([5]; with BRL427158): 0.125 µg/mL
MIC of antibiotic at fixed inhibitor concentration of 4 mg/L [5, 7]: 0.5 µg/mL
MIC of antibiotic at fixed inhibitor concentration of 4 mg/L ([5]; with sulbactam): 1 µg/mL
MIC of antibiotic at fixed inhibitor concentration of 4 mg/L ([5]; with tazobactam): 1 µg/mL
MIC of antibiotic (Serratia marcescens S6; antibiotic alone, no inhibitor): <0.06 µg/mL
MIC of antibiotic at fixed inhibitor concentration of 4 mg/L (Serratia marcescens S6; with 102 and clavulanate): ≦0.06 mg/L
MIC of antibiotic at fixed inhibitor concentration of 4 mg/L (Serratia marcescens S6; with 102 and sulbactam): <0.06 µg/mL
MIC of antibiotic at fixed inhibitor concentration of 4 mg/L (Serratia marcescens S6; with 102 only): ≦0.06 mg/L
MIC of antibiotic at fixed inhibitor concentration of 4 mg/L (Serratia marcescens S6; with 324 and clavulanate): <0.06 µg/mL
MIC of antibiotic at fixed inhibitor concentration of 4 mg/L (Serratia marcescens S6; with 324 and sulbactam): <0.06 µg/mL
MIC of antibiotic at fixed inhibitor concentration of 4 mg/L (Serratia marcescens S6; with 324 only): ≦0.06 mg/L
MIC of antibiotic at fixed inhibitor concentration of 4 mg/L (Serratia marcescens S6; with 501): ≦0.06 mg/L
MIC of antibiotic at fixed inhibitor concentration of 4 mg/L (Serratia marcescens S6; with BRL427158): ≦0.06 mg/L
MIC of antibiotic at fixed inhibitor concentration of 4 mg/L (Serratia marcescens S6; [7]): ≦0.06 mg/L
MIC of antibiotic at fixed inhibitor concentration of 4 mg/L (Serratia marcescens S6; with sulbactam): ≦0.06 mg/L
MIC of antibiotic at fixed inhibitor concentration of 4 mg/L (Serratia marcescens S6; with tazobactam): ≦0.06 mg/L
MIC of antibiotic ([6]; antibiotic alone, no inhibitor): <0.06 µg/mL
MIC of antibiotic at fixed inhibitor concentration of 4 mg/L ([6]; with 102 and clavulanate): 0.25 µg/mL
MIC of antibiotic at fixed inhibitor concentration of 4 mg/L ([6]; with 102 and sulbactam): 0.25 µg/mL
MIC of antibiotic at fixed inhibitor concentration of 4 mg/L ([6]; with 102 only): 0.25 µg/mL
MIC of antibiotic at fixed inhibitor concentration of 4 mg/L ([6]; with 324 and clavulanate): 0.25 µg/mL
MIC of antibiotic at fixed inhibitor concentration of 4 mg/L ([6]; with 324 and sulbactam): 0.25 µg/mL
MIC of antibiotic at fixed inhibitor concentration of 4 mg/L ([6]; with 324 only): 0.25 µg/mL
MIC of antibiotic at fixed inhibitor concentration of 4 mg/L ([6]; with 501): 0.125 µg/mL
MIC of antibiotic at fixed inhibitor concentration of 4 mg/L ([6]; with BRL427158): 0.125 µg/mL
MIC of antibiotic at fixed inhibitor concentration of 4 mg/L [6, 7]: ≦0.06 mg/L
MIC of antibiotic at fixed inhibitor concentration of 4 mg/L ([6]; with sulbactam): ≦0.06 mg/L
MIC of antibiotic at fixed inhibitor concentration of 4 mg/L ([6]; with tazobactam): ≦0.06 mg/L
